Experimental data from publication PMC8778818, “Synthesis, Structural Characterization and Anticancer Activity of New 5-Trifluoromethyl-2-thioxo-thiazolo[4,5-d]pyrimidine Derivatives” (Pharmaceuticals, 2022).

Legend:
T-47D = assay: NCI-60 screen, Breast Cancer T-47D; assay type: cell-based; conditions: T-47D, 10^−5 M one dose
SK-MEL-2 = assay: NCI-60 screen, Melanoma SK-MEL-2; assay type: cell-based, human; conditions: SK-MEL-2, 10^−5 M one dose
NCI-H522 = assay: NCI-60 screen, Non-Small Cell Lung Cancer NCI-H522; assay type: cell-based, human; conditions: NCI-H522, 10^−5 M one dose
A498 = assay: NCI-60 screen, Renal Cancer A498; assay type: cell-based, human; conditions: A498, 10^−5 M one dose
SNB-75 = assay: NCI-60 screen, CNS Cancer SNB-75; assay type: cell-based, human; conditions: SNB-75, 10^−5 M one dose
786-0 = assay: NCI-60 screen, Renal Cancer 786-0; assay type: cell-based; conditions: 786-0, 10^−5 M one dose
ACHN = assay: NCI-60 screen, Renal Cancer ACHN; assay type: cell-based, human; conditions: 10^−5 M one dose
NCI-H226 = assay: NCI-60 screen, Non-Small Cell Lung Cancer NCI-H226; assay type: cell-based, human; conditions: NCI-H226, 10^−5 M one dose
OVCAR-8 = assay: NCI-60 screen, Ovarian Cancer OVCAR-8; assay type: cell-based, human; conditions: OVCAR-8, 10^−5 M one dose
HS 578T = assay: NCI-60 screen, Breast Cancer HS 578T; assay type: cell-based, human; conditions: 10^−5 M one dose
A375 = assay: MTT cell viability assay, A375; assay type: cell-based, human; conditions: Homo sapiens, A-375, 72 h, A375, MTT, mean ± SD
Method: (§1) Twelve compounds (2a-e, 3a-d and 4a-c) at a concentration range of 50–5000 μM were tested for their antiproliferative potential against four human cancer cell lines (A375—melanotic melanoma, C32—amelanotic melanoma, DU145—prostate cancer androgen-independent, MCF-7/WT—breast adenocarcinoma) and two normal cell lines: Chinese Hamster Ovary (CHO-K1) and immortalized human keratinocytes from histologically normal skin (HaCaT).
(§2) To determine the antiproliferative activity of newly synthesized compounds, the following cell lines were used: human melanotic melanoma cell line (A375), human amelanotic melanoma cell line (C32), human breast adenocarcinoma cell line (MCF-7/WT), human prostate cancer androgen-independent (DU145) and two normal cell lines: hamster ovarian (CHO-K1) and immortalized human keratinocytes from histologically normal skin (HaCaT). The cells were obtained from the cell line bank of the Department of Molecular and Cellular Biology, Wroclaw Medical University. A375, C32, MCF-7/WT, DU145 and HaCaT cells were grown in a monolayer cultured in Dulbecco’s Modified Eagle’s Medium (DMEM, Sigma-Aldrich, Poznań, Poland), supplemented with 10% of fetal bovine serum (FBS, Gibco, Paisley, UK) and 1% of antibiotics (penicillin/streptomycin, Sigma-Aldrich) and CHO-K1 were grown in HAM’s F-12 medium (Sigma-Aldrich), supplemented with 10% fetal bovine serum (FBS, Gibco) and 1% of antibiotics (penicillin/streptomycin, Sigma-Aldrich). Cell lines were cultured in the polystyrene flasks 25 or 75 cm^2 (Thermo Fisher Scientific, Waltham, MA, USA), which were stored in 37 °C and 5% CO2 in a humidified 95% atmosphere (SteriCult, Thermo Scientific, Alab). The cell medium was exchanged twice a week. The exponentially growing cells were used throughout the experiments. The cells were rinsed with phosphate-buffered saline (PBS, Sigma-Aldrich) and trypsinized by Trypsin-EDTA 0.25% solution (Sigma-Aldrich).
(§3) The influence of the compounds was performed in a monolayer culture on cancer and normal cells. Compounds were initially dissolved in DMSO; further dilutions of the compound were performed in Dulbecco’s Modified Eagle’s Medium supplemented with 10% FBS. Compounds were tested in a 50–5000 µM concentration range. In the in vitro experiments, the concentrations of DMSO in the final solution of the compounds were used 0.05%; 0.1%; 0.5%; 1%, respectively.
(§4) Cell viability was determined using the MTT colorimetric assay. All cell lines were seeded into 96-well plates to a density of 3 × 10^4 cells/well. After 24 h, the culture supernatants were removed and appropriate dilutions of compounds in the culture medium (200 µL/well) were added to the cells’ monolayer cultures and incubated for an additional 72 h. After 72 h of exposition to the compounds and the removal of the culture medium, cell viability was determined by reducing the yellow dye 3-(4,5-dimethyl-2-thiazol)-2,5-diphenyl-2H-tetrazolium bromide (MTT assay, Sigma Saint Louis, MO, USA; In Vitro Toxicology Assay) to a blue formazan product. The absorbance of the resulting solutions in three duplicate experiments was measured at the wavelength of 560 nm in a microplate reader (EnSpire, Perkin Elmer, Kraków, Poland). MTT assay is a colorimetric method that estimates the rate of metabolism in viable cells. Absorbance is directly proportional to the number of viable cells. All the experiments were performed three times and the mean absorbance values were calculated. The methodology for the evaluation of the growth of human cancer and normal cells was described previously. The cell viability in each group was expressed as a percentage of control (untreated) cells.

SN12C = assay: NCI-60 screen, Renal Cancer SN12C; assay type: cell-based; conditions: 10^−5 M one dose
HT29 = assay: NCI-60 screen, Colon Cancer HT29; assay type: cell-based, human; conditions: HT29, 10^−5 M one dose
RPMI-8226 = assay: NCI-60 screen, Leukemia RPMI-8226; assay type: cell-based, human; conditions: RPMI-8226, 10^−5 M one dose
M14 = conditions: M14, 10^−5 M one dose
SK-OV-3 = assay: NCI-60 screen, Ovarian Cancer SK-OV-3; assay type: cell-based, human; conditions: SK-OV-3, 10^−5 M one dose
SK-MEL-28 = assay: NCI-60 screen, Melanoma SK-MEL-28; assay type: cell-based; conditions: SK-MEL-28, 10^−5 M one dose
C32 = assay: MTT cell viability assay, C32; assay type: cell-based, human; conditions: Homo sapiens; C32, MTT, 72 h, mean ± SD
Method: as §1, §2, §3, §4

OVCAR-3 = assay: NCI-60 screen, Ovarian Cancer OVCAR-3; assay type: cell-based, human; conditions: OVCAR-3, 10^−5 M one dose
SF-295 = assay: NCI-60 screen, CNS Cancer SF-295; assay type: cell-based, human; conditions: SF-295, 10^−5 M one dose
SK-MEL-5 = assay: NCI-60 screen, Melanoma SK-MEL-5; assay type: cell-based, human; conditions: SK-MEL-5, 10^−5 M one dose

Row | Compound | Growth of Cells (%) (T-47D) | Growth of Cells (%) (SK-MEL-2) | Growth of Cells (%) (NCI-H522) | Growth of Cells (%) (SNB-75) | Growth of Cells (%) (786-0) | Growth of Cells (%) (ACHN) | Growth of Cells (%) (NCI-H226) | Growth of Cells (%) (OVCAR-8) | Growth of Cells (%) (HS 578T) | IC50 (A375) [µM] | Growth of Cells (%) (SN12C) | Growth of Cells (%) (HT29) | Growth of Cells (%) (M14) | Growth of Cells (%) (SK-OV-3) | Growth of Cells (%) (SK-MEL-28) | IC50 (C32) [µM] | Growth of Cells (%) (OVCAR-3) | Growth of Cells (%) (SF-295) | other results
1 | O=c1[nH]c(C(F)(F)F)nc2c1sc(=S)n2-c1ccccc1 [Compound 2b, 3-phenyl-2-thioxo-5-(trifluoromethyl)-2,3-dihydro[1, 3]thiazolo[4,5-d]pyrimidin-7(6H)-one] | 108.41 | 97.36 | 90.35 | 91.21 | 104.97 | 110.42 | 103.60 | 103.45 | 65.01 | 367 ± 15.1 | 106.95 | 100.96 | 112.91 | 108.53 | 102.86 | 496 ± 20.4 | 110.35 | 116.63 | Growth of Cells (%) (A498): 90.58%; Growth of Cells (%) (RPMI-8226): 108.14%
2 | CCNc1nc(C(F)(F)F)nc2c1sc(=S)n2-c1ccccc1 [Compound 4b, 7-(ethylamino)-3-phenyl-5-(trifluoromethyl)[1, 3]thiazolo[4,5-d]pyrimidine-2(3H)-thione] | 73.92 | 88.08 | 70.40 | 99.24 | 101.39 | 93.13 | 88.51 | 96.11 | 106.83 | 524 ± 22.3 | 100.30 | 88.76 | 107.61 | 101.70 | 112.46 | 356 ± 15.2 | 106.99 | 94.05 | Growth of Cells (%) (SK-MEL-5): 87.63%
